According to patent US9096853B2, “Modified siRNA molecules incorporating 5-fluoro-2′-deoxyuridine residues to enhance cytotoxicity” (U.S. Department of Veterans Affairs, priority 2012, dated 2015):
One block for each compound: values may come before it. Strand notation (5' to 3'): a small letter for the sugar, then the base; units joined by * are phosphorothioate-linked, units joined directly phosphodiester-linked; [ ] holds rarer units or linkages, { } end groups; capitals alone tell only the bases. [5FU] = 5-fluoro-2'-deoxyuridine (FdU); d = 2'-deoxy (DNA); r = 2'-OH (RNA)

Assays:
[1] = tested on: thymidylate synthase (TS) protein; test: Immunoblot analysis of TS protein (free and ITC-bound), Odyssey quantitation; type: cell-based, human; conditions: RKO cells, 5 nM for 6 hr
[2] = tested on: human colon cancer RKO cell line; test: Cell proliferation assay (WST-1) in RKO cells; type: cell-based; conditions: for IC50: 6 hr exposure then 96 hr growth, mean ± S.D., at least 3 experiments; for effect on cell proliferation / cytotoxicity (in words): WST-1
Method: RKO cells were plated in 96-well plates at a density of 800 cells/well. On the following day, cells were incubated with ssiRNA/LF2000 complexes for 6 hr, after which time, the growth medium was replaced, and cells were grown for an additional 96 hr. Similarly, RKO cells were treated with FdU (#F0503, Sigma) for 6 hr followed by medium replacement and then allowed to grow for an additional 96 hr. Cell proliferation/viability was quantified by the WST-1 assay (Roche; Indianapolis, Ind.).

[3] = tested on: human colon cancer RKO cell line; test: Clonogenic assay in RKO cells; type: cell-based; conditions: for IC50: 6 hr exposure, colonies counted after 8 days, mean ± S.D., at least 3 experiments
Method: RKO cells were plated in 6-well plates at a density of 600 cells/well. On the following day, cells were transfected with ssiRNA/LF2000 complexes for 6 hr after which time, the growth medium was replaced. Similarly, FdU was added to wells for 6 hr followed by medium replacement. After 8 days, cell colonies were fixed with Trypan blue solution (75% methanol/25% acetic acid/0.25% trypan blue), washed, and air-dried before counting colonies >50 cells.

[4] = tested on: thymidylate synthase (TS) protein; test: Immunoblot analysis of TS protein (free and ITC-bound), Odyssey quantitation; type: cell-based, human; conditions: RKO cells, ssiRNA 1 nM, 48 hr; for Free TS (%) / ITC-Bound TS (%): normalized to free TS protein in mock-transfected cells (LF2000) set to 100%, mean ± S.D., 6 experiments
Method: FIGS. 1A-B illustrate the effect of FdU incorporation in ssiRNA on TS protein expression. RKO cells were transfected with TS6 ssiRNAs (1 nM) containing various 3′-overhangs. After 6 hr, the medium was replaced. After an additional 48 hr, cells were harvested and processed for immunoblot and qPCR analysis as described in the Materials and Methods section. (A) Representative blot from 4 experiments. (B) All qPCR values represent the mean±S.D. from at least 3 separate experiments performed in triplicate. The normalized amount of TS mRNA from mock-transfected cells (LF2000) was set to 1.0 and all other values compared against that value. ITC, inhibitory ternary complex;
Cells were plated at a density of 1.5×10^5 cells/well. On the following day, ssiRNAs were complexed with Lipofectamine 2000 (LF2000, Invitrogen) in serum-free RPMI-1640 medium and added to the plated cells. After 48 hr, cells were rinsed with PBS and scraped in cell lysis buffer (10 mM Tris pH7.4, 150 mM NaCl, 1 mM EDTA, 1% IGEPAL, 0.5% sodium deoxycholate, and 0.1% SDS) containing freshly added Protease Inhibitor Cocktail (Sigma; St. Louis, Mo.), 1 mM phenylmethylsulfonyl fluoride, and phosphatase inhibitors (Sigma). Lysates were sonicated and then centrifuged at 14,000 rpm for 30 min at 4° C. to remove debris. Cell lysates were stored at −80° C. for future use. For mRNA analysis, total RNA was extracted using Trizol (Invitrogen) and stored at −80° C. for future use.
Protein concentrations of cell lysates were determined using the DC Protein Assay (Bio-Rad; Hercules, Calif.). Equal amounts of protein (30 μg) from each cell lysate were resolved on SDS-PAGE using the method of Laemmli (Reference 19) and transferred onto 0.45 μm nitrocellulose membranes (Bio-Rad). Membranes were blocked and incubated overnight with primary antibodies at 4° C. The following antibodies were used in the experiments: anti-TS (Clone 4H4B1; Invitrogen), anti-TS (#5449; Cell Signaling; San Francisco, Calif.), anti-p21 Waf1/Cip1 (#2947; Cell Signaling), anti-p53 (#sc-126; Santa Cruz Biotechnology; Santa Cruz, Calif.), anti-PARP (#9542; Cell Signaling), anti-Fas (#4233; Cell Signaling), anti-phospho-histone H2A.X (Ser139) (#2577; Cell Signaling), anti-histone H2A.X (#7631; Cell Signaling), anti-phospho-ATM (pS1981; EPITOMICS Inc.; Burlingame, Calif.), anti-ATM (#A1106; Sigma), and anti-α-tubulin (EMD Biosciences; San Diego, Calif.). After multiple TBST washes (1×TBS, 0.1% Tween-20), membranes were incubated with corresponding horseradish peroxidase-conjugated secondary antibodies (Bio-Rad) for 1 hr at room temperature. Proteins were detected by the enhanced chemiluminescence method (SuperSignal West Pico substrate; Pierce; Rockford, Ill.). Quantitation of signal intensities was performed by densitometry on a Xerox scanner using NIH IMAGEJ software.
Immunoblots were prepared as described above. After incubation with anti-TS polyclonal antibody, membranes were blocked with the Odyssey blocking buffer and incubated with IRDye 800CW goat anti-rabbit antibody (LI-COR Biosciences; Lincoln, Nebr., USA) according to the manufacturer instructions. The fluorescent signal was detected and quantified using the Odyssey infrared imaging system (LI-COR).

[5] = tested on: TS6 siRNA target sequence (TS mRNA nt 1058-1077) targeted by the antisense strand; test: Luciferase assay, vector with TS6 target site for the antisense strand; type: cell-based, human; conditions: RKO cells, ssiRNA 0.1 nM, 24 hr
Method: (§1) FIG. 3 illustrates the effect of 3′-end modification on ssiRNA strand selection. RKO cells were transfected with luciferase vectors (including the TS6 target site for either the antisense (open bars) or sense strand (hatched bars)) in combination with ssiRNAs containing different 3′-end overhangs. After 24 hr, cells were harvested and luciferase activity was determined as described in the Materials and Methods section. Firefly/renilla luciferase activity from vector-alone transfection was normalized to 100%. All values represent the mean±S.D. from at least 4 separate experiments performed in duplicate;
(§2) FIGS. 4A-C illustrate the effect of 3′-end dU incorporation on ssiRNA strand selection. RKO cells were transfected with various TS6 ssiRNAs (1 nM) for 6 hr. After an additional 48 hr, cells were harvested for immunoblot (A) and qPCR (B) analysis. (C) Luciferase vectors (containing the siRNA target site for either the sense or antisense strand) were transfected into RKO cells in combination with different ssiRNAs. After 24 hr, cells were harvested and luciferase activity was determined as described in the Materials and Methods section. Luciferase activity from vector-alone transfection was normalized to 100%. All values represent the mean±S.D. from at least 4 separate experiments performed in duplicate;
(§3) A DNA oligonucleotide corresponding to the TS6 siRNA target sequence (TS mRNA nt 1058-1077: 5′-[…]-3′- SEQ ID NO: 23) was annealed to its complimentary antisense sequence and ligated into the pGL3-Promoter plasmid (Promega; Madison, WI) at restriction sites Hind III and Nco I. The luciferase mRNA expressed from this plasmid was targeted by the antisense strand of TS6 siRNA. A second plasmid was constructed with the TS mRNA sequence inserted in the opposite orientation so that it could be targeted by the sense or passenger strand of TS6 siRNA. […] After 24 hr, cells were washed with PBS, lysed in 1×PLG buffer, and firefly and renilla luciferase levels were determined by the Dual-Luciferase™ Reporter Assay system (Promega). […]

[6] = tested on: TS mRNA sequence in opposite orientation targeted by the sense (passenger) strand; test: Luciferase assay, vector with TS6 target site for the sense strand; type: cell-based, human; conditions: RKO cells, ssiRNA 0.1 nM, 24 hr
Method: as §1, §2, §3

Compound: O=c1[nH]cc(F)c(=O)[nH]1 [5-FU, 5-fluorouracil, reference compound]
formation of the ITC after incubation with 5-FU [1]: did not result in formation of the ITC

IC50 ([2]; Homo sapiens): 6.93 ± 2.08 nM
IC50 ([3]; Homo sapiens): 7.42 ± 1.33 nM
Compound: O=c1[nH]c(=O)n([C@H]2C[C@H](O)[C@@H](CO)O2)cc1F [FdU (TS inhibitor), 5-fluoro-2′-deoxyuridine]

Compound: Mis-dU/dA: unmodified mismatched control ssiRNA; SEQ ID NO: 19 and 20 (chain 1 GGAUACUGCCAAUCUCUAGGUUUUU; chain 2 CCUAGAGAUUGGCAGUAUCCAAAAA; chain 1: sugars from the 5' end r20 d5, backbone and T or U not given here; chain 2: sugars from the 5' end r20 d5, backbone not given here) [reference compound]
Free TS (%) [4]: 90.1 ± 14.0%
effect on cell proliferation / cytotoxicity (in words) [2]: no effect
effect on clonogenic growth (in words) [3]: no effect

Compound: TS6-1xF-dU/dA: ssiRNA with a single FdU residue at the 4th position in the sense strand; SEQ ID NO: 5 and 6 (chain 1 GGAUAUUGUCAGUCUUUAGGUUUUU; chain 2 CCUAAAGACUGACAAUAUCCAAAAA; FdU at position 4 of sense strand, chemistry not fully specified)
effect on TS protein expression (in words) [4]: significantly inhibited
Free TS (%) [4]: 27.3 ± 8.3%
ITC-Bound TS (%) [4]: 4.4 ± 2.6%
enhancement of IC50 versus TS6-dU/dA, cell growth (WST-1) assay [2]: ~30 fold
IC50 [2]: 2.85 ± 0.83 nM
fold lower IC50 (greater potency) versus TS6-dU/dA, clonogenic assay [3]: 5 fold
IC50 [3]: 0.34 ± 0.08 nM

Compound: TS6-2xF-dU/dA: ssiRNA with FdU on positions 16 and 18 of the antisense strand; SEQ ID NO: 17 and 18 (chain 1 GGAUAUUGUCAGUCUUUAGGUUUUU; chain 2 CCUAAAGACUGACAAUAUCCAAAAA; chain 1: sugars from the 5' end r20 d5, backbone not given here; chain 2: sugars from the 5' end rrrrrrrrrrrrrrrdrdrrddddd, [5FU] at 16, 18, backbone not given here)
Free TS (%) [4]: 54.1 ± 14.1%
ITC-Bound TS (%) [4]: 15.4 ± 9.5%

Compound: TS6-3xF-dU/dA: ssiRNA with FdU replacing U at positions 10, 16 and 18 in the antisense strand; SEQ ID NO: 15 and 16 (chain 1 GGAUAUUGUCAGUCUUUAGGUUUUU; chain 2 CCUAAAGACUGACAAUAUCCAAAAA; FdU at antisense positions 10, 16, 18, chemistry not fully specified)
Free TS (%) [4]: 73.6 ± 14.7%
ITC-Bound TS (%) [4]: 26.2 ± 10.7%

Compound: TS6-FdU/FdU: TS-targeted ssiRNA, both 3′-ends modified with FdU; SEQ ID NO: 13 and 14 (chain 1 rGrGrArUrArUrUrGrUrCrArGrUrCrUrUrUrArGrGd[5FU]d[5FU]d[5FU]d[5FU]d[5FU]; chain 2 rCrCrUrArArArGrArCrUrGrArCrArArUrArUrCrCd[5FU]d[5FU]d[5FU]d[5FU]d[5FU])
IC50 [2]: 0.77 ± 0.12 nM
IC50 [3]: 0.43 ± 0.16 nM
reduced efficacy as compared to TS6-FdU/dA, clonogenic assay ([3]; p=0.01): 2 fold

Compound: TS6-UU: standard TS6 siRNA with two uridine overhangs, TS-targeted; SEQ ID NO: 1 (sense) and 2 (antisense) (sense GGAUAUUGUCAGUCUUUAGGUU; antisense CCUAAAGACUGACAAUAUCCUU; RNA, backbone not given here)
antisense strand targeting, luciferase (in words) [5]: suppressed
sense strand targeting, luciferase (in words) [6]: suppressed

Compound: TS6-dA/FdU: TS-targeted ssiRNA with FdU modification of the 3′-end of antisense strand; SEQ ID NO: 11 and 12 (chain 1 GGAUAUUGUCAGUCUUUAGGAAAAA; chain 2 CCUAAAGACUGACAAUAUCCUUUUU; chain 1: sugars from the 5' end r20 d5, backbone not given here; chain 2: sugars from the 5' end r20 d5, [5FU] at 21, 22, 23, 24, 25, backbone not given here)
effect on TS protein expression (in words) [4]: reduced the ability
Free TS (%) [4]: 48.0 ± 18.6%
ITC-Bound TS (%) [4]: 30.6 ± 15.6%
IC50 [2]: 1.27 ± 0.32 nM
effect on cell proliferation / cytotoxicity (in words) [2]: significantly less effective
effect on clonogenic growth (in words) [3]: significantly less effective
IC50 [3]: 0.4 ± 0.2 nM
less targeting by the antisense strand [5]: 2 fold
sense strand targeting, luciferase (in words) [6]: enhanced
